{"source": "patent US6375969B1", "about": "“Broadcast carriers for pesticides and their use” (priority 1996, dated 2002)", "assay": "Volatile materials test in ventilating oven", "assay_type": "physicochemical", "details": "after 2 hours at 141° F. (=60.5° C.) in a ventilating oven", "method": "The moisture content of raw material Celite 500 is 3.7 weight percent. So, the weight of raw material Celite 500 is close to the dry weight of Celite 500. According to the product specifications of Supragil MNS/90, Soprophor S/40-P, and Supragil WP, the moisture contents of these components are no higher than 2 weight percent. Also, samples of chlorpyrifos technical were tested for volatile materials in a ventilating oven. The weight loss after 2 hours at 141° F. (=60.5° C.) was only 0.6 weight percent. […] Therefore, the dry spreadable granular product as manufactured above contains approximately 2.0 weight percent chlorpyrifos."}
{"smiles": "CCOP(=S)(OCC)Oc1nc(Cl)c(Cl)cc1Cl", "note": "[chlorpyrifos technical, Chlorpyrifos]", "values": [{"measurement": "weight loss (volatile materials)", "value": 0.6, "unit": "weight percent"}]}
